This note sets out measurements from US10603320B2, “Compounds useful for inhibiting ROR-gamma-t” (Eli Lilly and Company, priority 2017, dated 2020).

Molecules are shown by their SMILES.

In assay [1] the target is human RAR-related orphan receptor beta (hRORb) (Homo sapiens (Human), UniProt Q92753). The experiment in a line: RORb receptor-ligand competition binding assay. The conditions noted are these: His-tagged hRORb, [3H]-labelled isoxazole benzoic acid ligand.
Another assay has as its system PBMC. The experiment in a line: cells. It is filed as cell-based. Conditions: Homo sapiens, 48 h, read-out: Cell TiterGlo Viability (EC50). As to the method: PBMC's are isolated from whole blood buffy coats by first combining fresh buffy coats with equal volumes of phosphate buffered saline. Thirty five mL of PBS/buffy coat solution are then gently overlaid onto 15 mL of Ficoll in 50 mL conical tubes. Following centrifugation for 30 minutes at 500×g (with slow acceleration and deceleration) the top layer of plasma is discarded and the layer of cells along the Ficoll interface is collected and pooled. Each 250 mL tube is filled to the top with room temperature RPMI-1640 media. Tubes are spun for 10 minutes at 500×G (with slow acceleration and deceleration), the media is removed by aspiration, and the wash step is repeated. Cells are resuspended in ice cold Recovery Cell Culture Freezing Medium from Life Technologies (Catalog number 12648-010) on ice. […].
PBMC are brought out of thaw by resuspending with 1 mL of complete media (RPMI-1640 containing 30 mM HEPES, 100 units/mL penicillin, 100 μg/mL streptomycin, 3.25 mM L-Glutamine, 0.2 μM beta-mercaptoethanol, and 10% FBS) followed by the drop wise addition of 2 mL, 4 mL, 8 mL, and 16 mL of complete media with gentle swirling. Cells are spun down for 5 minutes and the cell pellet is resuspended in complete media. Clumps of cells are broken up by running the cell solution through a 23 gauge syringe needle and a 40 μM cell strainer. […].
Equal volumes of Cell TITERGLO® cell viability testing reagent (Promega Cat #G7573) are added to the cells remaining in the plates, and following a fifteen minute incubation with gentle shaking at room temperature luminescence is measured with the Envision multi-label plate reader. Percent cell death is calculated by setting 100% activity (cell death) to zero luminescence units and minimum activity (max number of viable cells) as the average luminescence units of wells containing stimulants alone and no added compound. IC50's are calculated using a standard four parameter fit.
On the technique in general: Cellular ATP, detected with luciferase, serves as a proxy for viable cell number.

The target in assay [2] is human RAR-related orphan receptor gamma (hRORg) (Homo sapiens (Human), UniProt P51449). Kind of assay: RORg receptor-ligand competition binding assay. The conditions noted are these: His-tagged hRORg, [3H]-25-hydroxycholesterol; mean ± standard deviation.
The next assay relates to IL-17 secretion in PBMC. The experiment in a line: PBMC IL-17 Secretion ELISA. It is filed as cell-based. The conditions noted are these: Homo sapiens; anti-CD3/anti-CD28/IL-23 stimulated PBMC, 48 hours; mean ± standard deviation; read-out: hPBMC IL-17 ELISA (EC50). The procedure: PBMC's are isolated from whole blood buffy coats by first combining fresh buffy coats with equal volumes of phosphate buffered saline. Thirty five mL of PBS/buffy coat solution are then gently overlaid onto 15 mL of Ficoll in 50 mL conical tubes. Following centrifugation for 30 minutes at 500×g (with slow acceleration and deceleration) the top layer of plasma is discarded and the layer of cells along the Ficoll interface is collected and pooled. Each 250 mL tube is filled to the top with room temperature RPMI-1640 media. Tubes are spun for 10 minutes at 500×G (with slow acceleration and deceleration), the media is removed by aspiration, and the wash step is repeated. Cells are resuspended in ice cold Recovery Cell Culture Freezing Medium from Life Technologies (Catalog number 12648-010) on ice. The cell concentration is adjusted to 66.7 million cells/mL. Cell are slow frozen at −1° C./minute in vials with 100 million cells and stored in liquid nitrogen.
PBMC are brought out of thaw by resuspending with 1 mL of complete media (RPMI-1640 containing 30 mM HEPES, 100 units/mL penicillin, 100 μg/mL streptomycin, 3.25 mM L-Glutamine, 0.2 μM beta-mercaptoethanol, and 10% FBS) followed by the drop wise addition of 2 mL, 4 mL, 8 mL, and 16 mL of complete media with gentle swirling. Cells are spun down for 5 minutes and the cell pellet is resuspended in complete media. Clumps of cells are broken up by running the cell solution through a 23 gauge syringe needle and a […] cell strainer. One hundred thousand cells per well are added to 384 well polystyrene tissue culture treated flat bottomed plates in a total of 30 μL. […]
Following the incubation period the plates are spun at 200×g for five minutes. […] Absorbance at 492 nm is measured with the Envision multi-label plate reader. […] IC50's for inhibition of IL-17 secretion is calculated based on converted values using a standard 4-parameter fit with maximum inhibition determined from the average values of wells with no added stimulants nor compounds and minimum inhibition from the average values of wells with stimulants alone and no added compound.
For orientation: An ELISA detects its analyte on a solid surface through an enzyme-linked reagent.

Assay [3] has as its target human RORg ligand binding domain fused to yeast GAL4 DNA binding domain (Homo sapiens (Human), UniProt P51449). Kind of assay: HEK293 RORg GAL4 Receptor-Reporter Assay. The conditions noted are these: HEK293 cells, RORg-GAL4/pGL4.31 luciferase reporter, 18 hours; mean ± standard deviation; read-out: hIC50. In kind it is cell-based. The procedure:
As an indicator of inverse agonist activity, an RAR-related orphan receptor gamma (RORg) receptor-reporter assay (RORg-GAL4/pGL4.31) is performed in HEK293 cells. HEK293 cells are co-transfected using Fugene™ reagent. A reporter plasmid containing a GAL4 binding domain and a minimal adenoviral promoter upstream of a firefly luciferase gene is co-transfected with a plasmid constitutively expressing a human RORg ligand binding domain fused to yeast GAL4 DNA binding domain. Cells are transfected in T150 cm^2 flasks in MEM media without FBS. After 18 hours incubation, transfected cells are trypsinized, plated in 96-well microtiter plates in 3:1 DMEM-F12 media containing 10% FBS, incubated for 4 hours and then exposed to various concentrations of test compounds ranging from about 0.05 nM to 10 μM. After 18 hours of incubations with compounds, cells are lysed and luciferase activity is quantified using standard techniques. Data is fit to a 4 parameter-fit logistics to determine IC50 values.
In general terms: In a reporter assay the amount or activity of a reporter protein is the signal.

Assay [4] deals with human RAR-related orphan receptor alpha (hRORa) (Homo sapiens (Human), UniProt P35398). Kind of assay: RORa receptor-ligand competition binding assay. The conditions noted are these: His-tagged hRORa, [3H]-25-hydroxycholesterol; mean ± standard deviation.
human RAR-related orphan receptor alpha (hRORa), sequence (P35398 whole entry): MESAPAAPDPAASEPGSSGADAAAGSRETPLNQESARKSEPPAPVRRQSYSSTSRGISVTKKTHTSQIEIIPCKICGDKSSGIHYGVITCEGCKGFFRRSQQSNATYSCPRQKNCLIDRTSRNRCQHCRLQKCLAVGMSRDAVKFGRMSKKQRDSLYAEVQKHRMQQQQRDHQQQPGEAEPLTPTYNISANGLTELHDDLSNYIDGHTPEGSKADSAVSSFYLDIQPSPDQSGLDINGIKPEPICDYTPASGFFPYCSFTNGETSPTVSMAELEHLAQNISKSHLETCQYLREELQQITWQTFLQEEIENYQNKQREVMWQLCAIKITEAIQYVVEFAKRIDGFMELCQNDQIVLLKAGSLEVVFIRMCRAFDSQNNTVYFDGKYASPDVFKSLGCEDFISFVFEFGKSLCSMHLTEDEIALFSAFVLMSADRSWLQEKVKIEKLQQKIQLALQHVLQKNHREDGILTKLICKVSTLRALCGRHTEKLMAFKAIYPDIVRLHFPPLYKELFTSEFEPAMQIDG

human RAR-related orphan receptor gamma (hRORg), sequence (P51449 whole entry): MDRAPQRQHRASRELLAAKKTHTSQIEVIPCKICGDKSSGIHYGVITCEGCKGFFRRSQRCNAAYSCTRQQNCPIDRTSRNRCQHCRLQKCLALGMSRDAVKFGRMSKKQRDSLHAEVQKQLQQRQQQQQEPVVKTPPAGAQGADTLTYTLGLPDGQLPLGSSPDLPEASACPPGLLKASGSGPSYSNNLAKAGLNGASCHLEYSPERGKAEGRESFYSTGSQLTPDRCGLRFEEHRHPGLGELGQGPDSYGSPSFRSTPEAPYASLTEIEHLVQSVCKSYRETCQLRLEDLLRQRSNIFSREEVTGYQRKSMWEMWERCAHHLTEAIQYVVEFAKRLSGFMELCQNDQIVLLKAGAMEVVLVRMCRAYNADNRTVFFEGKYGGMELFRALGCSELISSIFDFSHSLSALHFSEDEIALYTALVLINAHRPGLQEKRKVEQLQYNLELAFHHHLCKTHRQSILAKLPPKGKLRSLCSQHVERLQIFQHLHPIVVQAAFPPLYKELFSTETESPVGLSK
human RAR-related orphan receptor beta (hRORb), sequence (Q92753 whole entry): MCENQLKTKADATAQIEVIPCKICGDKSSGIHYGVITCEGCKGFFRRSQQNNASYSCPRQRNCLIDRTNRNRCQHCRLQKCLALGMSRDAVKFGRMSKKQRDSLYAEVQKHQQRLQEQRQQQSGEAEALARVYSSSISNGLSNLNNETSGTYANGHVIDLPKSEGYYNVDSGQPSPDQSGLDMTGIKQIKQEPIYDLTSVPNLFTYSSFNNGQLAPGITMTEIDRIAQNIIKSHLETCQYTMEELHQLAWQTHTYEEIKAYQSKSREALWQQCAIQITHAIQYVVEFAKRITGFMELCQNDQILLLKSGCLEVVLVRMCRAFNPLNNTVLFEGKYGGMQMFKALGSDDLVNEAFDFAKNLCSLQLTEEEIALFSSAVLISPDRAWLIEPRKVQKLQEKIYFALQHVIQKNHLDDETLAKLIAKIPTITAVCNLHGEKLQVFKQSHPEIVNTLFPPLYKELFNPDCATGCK
human RORg ligand binding domain fused to yeast GAL4 DNA binding domain, sequence (P51449 269-508): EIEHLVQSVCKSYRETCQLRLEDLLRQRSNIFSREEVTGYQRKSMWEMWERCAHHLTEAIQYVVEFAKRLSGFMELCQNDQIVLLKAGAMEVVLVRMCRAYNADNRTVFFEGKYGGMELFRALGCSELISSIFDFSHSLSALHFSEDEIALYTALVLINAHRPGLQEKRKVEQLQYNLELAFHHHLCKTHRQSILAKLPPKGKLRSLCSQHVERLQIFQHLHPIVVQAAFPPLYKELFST

A word on the Ki: it is a measure of affinity in units of concentration, obtained from inhibition or displacement. High values mean a looser hold on the target, low ones a stronger hold on the target. The EC50 is the midpoint of the concentration-response curve. `CCS(=O)(=O)c1ccc(CNC(=O)c2cc3c(s2)C2(CCN(C(C)c4ccc(C#N)cc4)CC2)OC2(CC2)C3)cc1` (single isomer, unassigned; isomer 1) [Example 8, 1′-[1-(4-Cyanophenyl)ethyl]-5,5-spirocyclopropane-N-[(4-ethylsulfonylphenyl)methyl]spiro[4H-thieno[2,3-c]pyran-7,4′-piperidine]-2-carboxamide isomer 1]: the figures for the Ki in assay [1], in assay [2] and in assay [4] were > 12500 nM, 6 ± 1.81 nM and > 20400 nM, respectively. Moreover, the 50% effective concentration (EC50) was > 1000 nM with PBMC and 10.9 ± 6.44 nM with IL-17 secretion in PBMC. In addition, the IC50 in assay [3] was 34.4 ± 6.01 nM.
Turning to `CCS(=O)(=O)c1ccc(CNC(=O)c2cc3c(s2)C2(CCN([C@H](C)c4cnc(C(F)(F)F)nc4)CC2)OC(C)(C)C3)nc1` [Example 5, N-{[5-(Ethylsulfonyl)pyridin-2-yl]methyl}-5′,5′-dimethyl-1-{(1R)-1-[2-(trifluoromethyl)pyrimidin-5-yl]ethyl}-4′,5′-dihydrospiro[piperidine-4,7′-thieno[2,3-c]pyran]-2′-carboxamide], the Ki in assay [1] was > 12500 nM; in assay [2], 6.96 ± 3.89 nM. The values for the 50% effective concentration (EC50) in the assay with PBMC and in the assay with IL-17 secretion in PBMC were > 1000 nM and 11 ± 7.67 nM, respectively. The IC50 in assay [3] was 16.7 ± 20.3 nM.
As to `CCS(=O)(=O)c1ccc(CNC(=O)c2cc3c(s2)C2(CCN([C@H](C)c4cnc(C(F)(F)F)nc4)CC2)OC2(CC2)C3)nc1` [Example 7, N-{[5-(Ethylsulfonyl)pyridin-2-yl]methyl}-1″-(1R)-1-[2-(trifluoromethyl)pyrimidin-5-yl]ethyl-4′H-dispiro[cyclopropane-1,5′-thieno[2,3-c]pyran-7′,4″-piperidine]-2′-carboxamide], the Ki was > 12500 nM in assay [1] and 6.4 ± 2.62 nM in assay [2]. In addition, the EC50 is > 1000 nM in the assay with PBMC and 14.6 ± 8.24 nM with IL-17 secretion in PBMC. Further, the IC50 in assay [3] was 22.3 ± 23.8 nM.
